Experimental data as given in patent publication US12364706B2, “Modified aminoglycoside compounds and uses thereof in disabling bacterial ribosome” (Technion Research & Development Foundation Limited, priority 2018, dated 2025).

Tests used:
[1] = test system: Gram-positive pathogenic MRSA strains; assay: Antibacterial activity (MIC, double-microdilution) against MRSA strains; format: cell-based; conditions: relative to NeoB
Description: (§1) Comparative antibacterial activities were determined by measuring the MIC values by using the double-microdilution method according to the National Committee for Clinical Laboratory Standards (NCCLS).
(§2) All the experiments were performed in triplicate, and analogous results were obtained in three different experiments.
The resistant strains included MRSA, a Gram-positive bacterium, the treatment of which represents a great challenge in the clinic; MRSA 252, which is known for its high resistance to aminoglycosides [M. T. G. Holden, E. J. Feil, J. A. Lindsay, S. J. Peacock, N. P. J. Day, M. C. Enright, T. J. Foster, C. E. Moore, L. Hurst, R. Atkin, et al., Proc. Natl. Acad. Sci. USA 2004, 101, 9786-9791]; and MRSA CI 15877, which is resistant to natural aminoglycosides [G. Kaneti, H. Sarig, I. Marjieh, Z. Fadia, A. Mor, FASEB J. 2013, 27, 4834-4843].

[2] = test system: E. coli S30 extract for circular DNA with the pBESTluc plasmid; assay: Prokaryotic in vitro translation inhibition, coupled transcription/translation assay; format: biochemical; conditions: for IC50: prokaryotic system, 37° C., 60 minutes, read-out: IC50 values, protein translation inhibition (half-maximum inhibition levels); for inhibitory potency of protein translation compared with NeoB: relative to NeoB
Description: Prokaryotic in vitro translation inhibition by the different standard and synthetic aminoglycosides was quantified in coupled transcription/translation assays by use of E. coli S30 extract for circular DNA with the pBESTluc plasmid (Promega), according to the manufacturer's protocol.
Translation reactions ([…]) containing variable concentrations of the tested aminoglycoside were incubated at 37° C. for 60 minutes, cooled on ice for 5 minutes, and diluted with a dilution reagent [Tris-phosphate buffer (25 mm, pH 7.8), dithiothreitol (DTT, 2 mm), 1,2-diaminocyclohexanetetraacetate (2 mm), glycerol (10%), triton X100 (1%), and bovine serum albumin (BSA, 1 mg/mL] into 96-well plates.
The luminescence was measured immediately after the addition of Luciferase Assay Reagent (Promega) ([…]), and light emission was recorded with a Victor3 Plate Reader (PerkinElmer).
The concentration of half-maximal inhibition (IC^50) was obtained from fitting concentration-response curves to the data of at least three independent experiments by using Grafit 5 software.

[3] = test system: WT and aminoglycoside-resistant strains, including Gram-negative and Gram-positive bacteria; assay: Antibacterial activity (MIC) against WT and aminoglycoside-resistant strains; format: cell-based
Description: as §1, §2
The minimal inhibitory concentration (MIC) values of the newly designed exemplary Compounds 1-10 were determined against wild-type (WT) Gram-negative and Gram-positive bacteria.
The bacterial strains that were included in these tests were as follows:
Two wild-type (WT) E. coli strains (R477-100 and 25922) as representatives of Gram-negative bacteria with unknown resistance to aminoglycosides [V. Pokrovskaya, V. Belakhov, M. Hainrichson, S. Yaron, T. Baasov, J. Med. Chem. 2009, 52, 2243-2254] and two WT Staphylococcus epidermidis and Bacillus subtilis strains as representatives of Gram-positive bacteria (the clinically used aminoglycosides have significant antibacterial activity against these strains) [J. Kondo, M. Hainrichson, I. Nudelman, D. Shallom-Shezifi, C. M. C. M. Barbieri, D. S. D. S. Pilch, E. Westhof, T. Baasov, ChemBioChem 2007, 8, 1700-1709]. […]

E. coli ribosomes = assay: rRNA cleavage experiments with full-size E. coli ribosomes (gel electrophoresis); format: biochemical
[4] = test system: adenylyl(3′-5′)-adenosine (ApA); conditions: relative to 1,3-propanediamine; cited from earlier work
[5] = test system: Geobacillus T1 harboring the resistance to kanamycin; assay: Antibacterial activity against kanamycin-resistant Geobacillus T1; format: cell-based
Description: as §1, §2

For “4′-O-(2-aminoethylamino)ethyl-neomycin [Compound 2]”, which “MIC values, times lower than that of NeoB” value [1] is on record?
The value was 64 times.

Which IC50 [2] does the source give for `NCCNCC(=O)N[C@H]1[C@H](O)[C@@H](N)[C@@H](O[C@H]2[C@H](O[C@@H]3O[C@H](CO)[C@@H](O[C@H]4O[C@@H](CN)[C@@H](O)[C@H](O)[C@H]4N)[C@H]3O)[C@@H](O)[C@H](N)C[C@@H]2N)O[C@@H]1CN` [Compound 6, 4′-(2-(aminoethylamino)acetamido)-4′-deoxy-neomycin] here?
Its IC50 is 6 nM.

What about the “inhibitory potency of protein translation compared with NeoB” value [2] of the same molecule?
The value was “two-fold higher than that of NeoB”.

For “4′-O-(2-aminoethylamino)ethyl-paromamine [Compound 1]”, which antibacterial activity [3] is on record?
Its antibacterial activity is “substantially lower than that of the other compounds tested”.

What does the source list for `NCCNCC(=O)NC[C@H]1O[C@H](O[C@H]2[C@H](O[C@@H]3O[C@H](CO)[C@@H](O[C@H]4O[C@@H](CN)[C@@H](O)[C@H](O)[C@H]4N)[C@H]3O)[C@@H](O)[C@H](N)C[C@@H]2N)[C@H](N)[C@@H](O)[C@@H]1N` [Compound 9, 4′-amino-6′-(2-(aminoethylamino)acetamido)-4′-deoxy-neomycin]?
IC50 [2]: 5 nM; inhibitory potency of protein translation compared with NeoB [2]: two-fold higher than that of NeoB

For `NCCNCCNCC(=O)NC[C@H]1O[C@H](O[C@H]2[C@H](O[C@@H]3O[C@H](CO)[C@@H](O[C@H]4O[C@@H](CN)[C@@H](O)[C@H](O)[C@H]4N)[C@H]3O)[C@@H](O)[C@H](N)C[C@@H]2N)[C@H](N)[C@@H](O)[C@@H]1N` [Compound 10, 4′-amino-6′-[2-(2-(2-aminoethylamino)ethylamino)acetamido]-4′-deoxy-neomycin], which IC50 [2] is on record?
The IC50 was 6 nM.

What about the “inhibitory potency of protein translation compared with NeoB” value [2] of the same molecule?
The value was “two-fold higher than that of NeoB”.

What does the source list for `NC[C@@H]1O[C@H](O[C@H]2[C@@H](O)[C@H](O[C@@H]3[C@@H](O)[C@H](N)C[C@H](N)[C@H]3O[C@H]3O[C@H](CN)[C@@H](O)[C@H](O)[C@H]3N)O[C@@H]2CO)[C@H](N)[C@@H](O)[C@@H]1O` [NeoB, Neomycin B]?
cleavage of rRNA in full ribosomes (E. coli ribosomes; concentrations up to 400 mM, 24 hours, 37° C., pH 7.0): did not show any signs of the cleaved product; IC50 [2]: 10 nM; hydrolysis of ApA, faster than 1,3-propanediamine [4]: 3 fold; antibacterial activity [5]: almost lost its activity

With `NCCNCCNCC(=O)NC1C(CN)OC(OC2C(N)CC(N)C(O)C2OC2OC(CO)C(OC3OC(CN)C(O)C(O)C3N)C2O)C(N)C1O` (stereo not drawn) [Compound 8, 4′-[2-(2-(2-aminoethylamino)ethylamino)acetamido]-4′-deoxy-neomycin] as the molecule, how does the “MIC values, times lower than that of NeoB” value [1] read?
The value was 64 times.

For `NCCN` [ethylenediamine], which “cleavage of rRNA in full ribosomes” value (E. coli ribosomes; pH 7) is on record?
The value was “did not cleave the full ribosome”.

For `CNCCNCCO[C@H]1[C@H](O)[C@@H](N)[C@@H](O[C@H]2[C@H](O[C@@H]3O[C@H](CO)[C@@H](O[C@H]4O[C@@H](CN)[C@@H](O)[C@H](O)[C@H]4N)[C@H]3O)[C@@H](O)[C@H](N)C[C@@H]2N)O[C@@H]1CN` [Compound 3, 4′-O-(2-(methylamino)ethylamino)ethyl-neomycin], which “cleavage of rRNA in full ribosomes” value (E. coli ribosomes; pH 7) is on record?
Its value is “did not show any signs of the cleaved product”.
